# Measured values from paper PMC12767106, “In Situ Assembly of Transformable Monopeptide on Activated Neutrophils Attenuates NETs‐Induced Hepatocellular Carcinoma Metastasis by Disrupting NE Nuclear Translocation” (Advanced Science, 2025).
# Assays:
# [1] = Nanoparticle size stability by DLS; assay type: physicochemical; details: room temperature, 20 µM, up to 168 h, method and Figure S3 legend name H2O and medium, repeated thrice
# [2] = Critical aggregation concentration, pyrene probe; assay type: physicochemical; details: I3/I1 ratio, excitation 335 nm, 37 °C, 2 h, NPs 0.01-50 µM
# Description: Submitted to Advanced Science temperature. Following the incubation, 10 µL of the solution was added to a copper mesh at 0 and 24 h. Filter paper was used to remove any extra droplets after an overnight stay. The samples were then stained for five minutes with uranyl acetate and then rinsed for one minute with water (10 µL). Finally, dried samples were observed by TEM (Talos 120C, Thermo Fisher Scientific, USA). DLS (Zetasizer Nano ZS, UK) was used to assess the solution for hydrodynamic size and zeta potential at 0 and 24 h following the incubation. Then, the nanofiber structure at 0 h and 24 h after incubation of FTP-NPs was examined with Circular Dichroism (CD) Spectra (Chirascan, UM, Britain). In addition, the variation of fluorescence emission spectra of PpIX by […]
# transformation of FTP-NPs.
# Pyrene molecules were employed as an indicator to determine the critical aggregation concentration (CAC) of nanoparticles by comparing the fluorescence of their third and first emissive peaks. […] The fluorescence spectra of pyrene (excitation, 335 nm) in different NPs dilutions were recorded. The fluorescence intensity ratio (I3/I1) of the third and first emissive peaks was measured for CAC calculation. […]
# [3] = test system: activated neutrophils; assay: Retention on neutrophil membrane, flow cytometry of PpIX; assay type: cell-based, mouse; details: 50 µM, NPs washed off after 4 h, fresh medium for another 8 h
# [4] = test system: mice bearing Hepa1-6/luc tumors; assay: Biodistribution by in vivo and ex vivo fluorescence imaging; parameters: species or system mouse
# Description: To further evaluate the tumor tissue accumulation of FTP‐NPs in vivo, we conducted in vivo biodistribution studies using a murine model. For biodistribution studies, mice bearing Hepa1‐6/luc tumors were treated by NFTP‐NPs and FTP‐NPs via tail vein injection and monitored over time using an In‐Vivo system (IVIS, Figure 4a). After 12, 24, 48, and 168 h, tumors and major organs were collected for ex vivo fluorescence imaging (Figure S16a, Supporting Information). The fluorescence signal of the FTP‐NPs group was still detectable in tumor tissues after more than 3 days and lasted up to 7 days. In situ receptor‐mediated transformation of FTP‐NPs to NE‐fibril clusters in the tumor microenvironment may be responsible for the prolonged preservation of the fluorescence signal in FTP‐NPs‐treated mice, even after 7 days. […] The fluorescence signal of tumor tissue in the FTP‐NPs group at 48 h was 7.1‐fold higher than that in the NFTP‐NPs group (Figure S16b, Supporting Information).
# Submitted to Advanced Science
# Figure S16. Time-dependent ex vivo fluorescence (FL) images (a) and quantitative analysis (b) of tumor tissues and major organs (heart (H), liver (Li), spleen (Sp), lung (Lu), kidney (K), intestine(I), muscle (M), skin (Sk), and brain (B)) collected at 12, 24, 48, and 168 h post-injection of NFTP-NPs and FTP-NPs.
# Figure S17. Gating strategy for T cell analysis. The tumor-bearing mice from each group were euthanized on day 20 post-treatment. Fifty thousand events were collected for each sample in the study. CD45+ cell counts determined the total T cell number, and CD8+ T cells were then gated within CD3+ T lymphocytes.
# Figure S18. Corresponding flow cytometric quantification of CD8+T cells (CD45+CD3+CD8+, n = 3). Data are presented as mean ± s.d., n = 3 independent experiments. Statistical significance was calculated by one-way […]
# [5] = tail vein injection, IVIS imaging
Substance,size change in PBS and FBS solutions within 168 h [1],critical aggregation concentration (CAC) [2] [µM],PpIX fluorescence on activated neutrophils from 4 h to 12 h (retention) [3],"fluorescence signal of tumor tissue relative to NFTP-NPs group ([4]; 48 h after tail vein injection, ex vivo imaging) [fold]","duration of fluorescence signal in tumor tissues [4, 5]","fluorescence signal in major organs by 72 h [4, 5]"
PpIX-GFFVLK-EAIPMSIPPEVK [FTP-NPs],did not change significantly,5.45,persistently strong PpIX fluorescence signals,7.1,up to 7 days,–
"PpIX-GGGAAK-EAIPMSIPPEVK [NFTP-NPs, nanoparticles of the non-fibrillar transformable control peptide NFTP]",did not change significantly,3.75,dropped sharply,–,–,essentially undetectable
